Laboratory results reported in PMC10974533, “Cationicity Enhancement on the Hydrophilic Face of Ctriporin Significantly Reduces Its Hemolytic Activity and Improves the Antimicrobial Activity against Antibiotic-Resistant ESKAPE Pathogens” (Toxins, 2024).
Where a SMILES comes first, the peptide text is derived from it.

Experiments:
Format in all cases: cell-based
K. pneumoniae ATCC700603 = assay: MIC, broth dilution, standard strain; settings: broth dilution (CLSI), MHB, 37 °C, 16–20 h
Description: (§1) The standard strains, including S. aureus ATCC29213 and ATCC25923, E. faecalis ATCC29212, E. coli ATCC25922 and ATCC35218, A. baumannii ATCC19606, K. pneumoniae ATCC700603, and P. aeruginosa ATCC27853, were purchased from the China Center of Type Culture Collection (CCTCC). The clinical strains of the ESKAPE pathogens were isolated from the affiliated hospitals of Hubei University of Medicine. All of them were stored at −80 °C before use. The drug sensitivities of the clinical strains were determined by the Kirby–Bauer test.
(§2) The MICs were determined using the broth dilution method according to the guidelines of the Clinical and Laboratory Standards Institute (CLSI), as described in the previous studies. Briefly, the bacterial cells were incubated in Mueller–Hinton broth (MHB, Oxoid, Basingstoke, UK) at 37 °C and 150 rpm to the mid-growth phase and diluted to achieve a final concentration of 5 × 10^5 colony-forming units per milliliter (CFU/mL). Then, the cells were mixed with each peptide in different concentrations (1, 2, 4, 8, 16, 32, and 64 μg/mL). […] All experiments were repeated at least three times.

E. coli ATCC25922 = assay: MIC, broth dilution, standard strain; settings: broth dilution (CLSI), MHB, 37 °C, 16–20 h
Description: as §1, §2

E. faecium ATCC29212 = assay: MIC, broth dilution, standard strain; settings: broth dilution (CLSI), MHB, 37 °C, 16–20 h
Description: as §1, §2

S. aureus ATCC25923 = assay: MIC, broth dilution, standard strain; settings: broth dilution (CLSI), MHB, 37 °C, 16–20 h
Description: as §1, §2

E. coli ATCC35218 = assay: MIC, broth dilution, standard strain; settings: broth dilution (CLSI), MHB, 37 °C, 16–20 h
Description: as §1, §2

P. aeruginosa ATCC27853 = assay: MIC, broth dilution, standard strain; settings: broth dilution (CLSI), MHB, 37 °C, 16–20 h
Description: as §1, §2

A. baumannii ATCC19606 = assay: MIC, broth dilution, standard strain; settings: broth dilution (CLSI), MHB, 37 °C, 16–20 h
Description: as §1, §2

S. aureus ATCC29213 = assay: MIC, broth dilution, standard strain; settings: broth dilution (CLSI), MHB, 37 °C, 16–20 h
Description: as §1, §2

[1] = system: human red blood cells (hRBC); assay: Hemolytic activity determination; settings: 256 μg/mL peptide, 2% (v/v) hRBC, 37 °C, 1 h, OD540, 1% Triton X-100 = 100%; average ± standard error of three independent experiments
Description: Figure 2 Hemolytic activities of Ctriporin and its analogs against human red blood cells (hRBC). Hemolytic activities of Ctriporin (solid circle), CM1 (open circle), CM2 (open square), CM3 (upward triangle), CM4 (downward triangle), CM5 (half solid circle), CM6 (half solid square), and CM7 (half solid triangle), were measured against 2% (v/v) human red blood cells. The peptide concentrations are 0, 2, 4, 8, 16, 32, 64, 128, 256, and 512 μg/mL. The cells treated with 1% Triton X-100 were treated as 100% hemolysis. All experiments were repeated three times, and the data shown are the average ± standard error.
The hemolytic activities of the peptides were determined against human red blood cells (hRBCs). As described, sodium citrate-anticoagulated hRBCs were washed three times with 0.9% sodium chloride and diluted to a final concentration of 4% (v/v). Then, an equal volume of hRBC solutions was mixed with an equal volume of each peptide in a series of concentrations (0, 2, 4, 8, 16, 32, 64, 128, 256, and 512 μg/mL). After co-incubation at 37 °C for 1 h, the degree of hemolysis of the peptides was determined by detecting the release of hemoglobin from the damaged hRBCs by measuring the optical density at 540 nm (OD540). hRBCs in 0.9% sodium chloride and 1% Triton X-100 were considered 0% and 100% hemolysis, respectively. The results shown are the average ± standard error of data derived from three independent experiments. The percent hemolysis was calculated according to the following equation [53, 54]:Hemolysis (%) = 100 × (Asample − Ablank)/(Apositive − Ablank)

[2] = 5 × 10^5 CFU/mL, OD630, repeated at least three times

Row | SMILES | MICs (K. pneumoniae ATCC700603; [2]) [µg/mL] | MICs (K. pneumoniae ATCC700603; value in parentheses) [µM] | MICs (E. coli ATCC25922; [2]) [µg/mL] | MICs (E. faecium ATCC29212; [2]) [µg/mL] | MICs (E. faecium ATCC29212; value in parentheses) [µM] | MICs (S. aureus ATCC25923; [2]) [µg/mL] | MICs (S. aureus ATCC25923; value in parentheses) [µM] | MICs (E. coli ATCC35218; [2]) [µg/mL] | MICs (E. coli ATCC35218; value in parentheses) [µM] | MICs (P. aeruginosa ATCC27853; [2]) [µg/mL] | MICs (P. aeruginosa ATCC27853; value in parentheses) [µM] | MICs (A. baumannii ATCC19606; [2]) [µg/mL] | MICs (A. baumannii ATCC19606; value in parentheses) [µM] | MICs (S. aureus ATCC29213; [2]) [µg/mL] | MICs (S. aureus ATCC29213; value in parentheses) [µM] | Hemolysis% at 256 μg/mL [1] [%] | MICs (E. coli ATCC25922; value in parentheses) [µM]
1 | CC[C@H](C)[C@H](NC(=O)[C@H](C)NC(=O)CNC(=O)[C@@H]1CCCN1C(=O)[C@@H](NC(=O)[C@H](CC(C)C)NC(=O)[C@H](CCCCN)NC(=O)[C@H](Cc1c[nH]c2ccccc12)NC(=O)[C@H](CC(C)C)NC(=O)[C@@H](N)Cc1ccccc1)[C@@H](C)CC)C(=O)N[C@@H](CO)C(=O)N[C@@H](C)C(=O)N[C@H](C(=O)N[C@H](C(=O)N[C@@H](CO)C(=O)N[C@@H](CC(C)C)C(=O)N[C@H](C(=O)N[C@@H](CCCCN)C(=O)N[C@@H](CCCCN)C(N)=O)[C@@H](C)CC)[C@@H](C)O)C(C)C [CM1] (H-FLWKLIPGAISAVTSLIKK-NH2; N-terminus assumed) | 64 | 30.7 | 8 | 16 | 7.7 | 16 | 7.7 | 32 | 15.4 | > 64 | > 30.7 | 8 | 3.8 | 8 | 3.8 | 75.6 ± 10.1 | 
2 | CC[C@H](C)[C@H](NC(=O)[C@H](C)NC(=O)[C@H](CCCCN)NC(=O)[C@@H]1CCCN1C(=O)[C@@H](NC(=O)[C@H](CC(C)C)NC(=O)[C@H](CCCCN)NC(=O)[C@H](Cc1c[nH]c2ccccc12)NC(=O)[C@H](CC(C)C)NC(=O)[C@@H](N)Cc1ccccc1)[C@@H](C)CC)C(=O)N[C@@H](CO)C(=O)N[C@@H](C)C(=O)N[C@H](C(=O)N[C@H](C(=O)N[C@@H](CO)C(=O)N[C@@H](CC(C)C)C(=O)N[C@H](C(=O)N[C@@H](CCCCN)C(=O)N[C@@H](CCCCN)C(N)=O)[C@@H](C)CC)[C@@H](C)O)C(C)C [CM2] (H-FLWKLIPKAISAVTSLIKK-NH2; N-terminus assumed) | 16 | 7.4 | 4 | 4 | 1.9 | 8 | 3.7 | 8 | 3.7 | 16 | 7.4 | 4 | 1.9 | 4 | 1.9 | 74.3 ± 9.2 | 1.9
